# Measured values published in publication PMC9256654, “Mechanistic basis for maintenance of CHG DNA methylation in plants” (Nature Communications, 2022).
# Target: T1, CMT3 (Arabidopsis thaliana, UniProt Q94F88)
# T1 construct: residues 42-839; N-terminal His6-SUMO tag removed by ULP1; E. coli BL21(DE3) RIL
# T1 sequence (Q94F88 42-839): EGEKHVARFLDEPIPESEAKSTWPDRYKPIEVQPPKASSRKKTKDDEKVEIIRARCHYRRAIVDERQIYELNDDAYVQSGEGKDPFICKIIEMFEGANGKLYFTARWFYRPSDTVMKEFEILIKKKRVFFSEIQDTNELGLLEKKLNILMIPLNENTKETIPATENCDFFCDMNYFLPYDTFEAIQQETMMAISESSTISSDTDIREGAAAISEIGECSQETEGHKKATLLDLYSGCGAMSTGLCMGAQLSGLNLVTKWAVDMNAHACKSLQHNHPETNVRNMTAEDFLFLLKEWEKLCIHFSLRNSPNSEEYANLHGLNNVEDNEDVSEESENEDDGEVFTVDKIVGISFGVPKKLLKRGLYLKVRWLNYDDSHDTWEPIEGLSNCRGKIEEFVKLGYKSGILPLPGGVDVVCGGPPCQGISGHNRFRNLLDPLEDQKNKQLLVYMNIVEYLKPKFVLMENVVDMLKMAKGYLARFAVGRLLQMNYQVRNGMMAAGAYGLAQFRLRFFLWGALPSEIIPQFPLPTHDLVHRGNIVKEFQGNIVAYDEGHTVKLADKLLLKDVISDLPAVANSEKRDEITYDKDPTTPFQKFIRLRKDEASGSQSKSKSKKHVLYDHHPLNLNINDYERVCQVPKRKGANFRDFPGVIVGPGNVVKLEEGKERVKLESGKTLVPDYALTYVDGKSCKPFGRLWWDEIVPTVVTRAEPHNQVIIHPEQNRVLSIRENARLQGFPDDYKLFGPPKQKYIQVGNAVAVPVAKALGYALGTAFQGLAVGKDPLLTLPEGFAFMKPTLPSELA
# Assay: radiometric DNA methylation assay (3H-methyl transfer, nylon membrane)
# Format: biochemical
# Conditions: labelled compound; 0.56 uM [3H]SAM plus 1.96 uM SAM; 4.0 uM DNA; 4.0 uM histone peptide; no added NaCl; pH 8.0, 37 C, 1 h
structure (smiles),measurement,value
"C[S+](CC[C@H](N)C(=O)O)C[C@H]1O[C@@H](n2cnc3c(N)ncnc32)[C@H](O)[C@@H]1O (stereo partly drawn) [SAM, S-adenosyl-L-methionine]","radiometric DNA methylation assay (3H-methyl transfer, nylon membrane)",All the rest of the reaction conditions for CMT3 were the same as those for ZMET2
